According to PMC8160210, “Single tryptophan Y160W mutant of homooligomeric E. coli purine nucleoside phosphorylase implies that dimers forming the hexamer are functionally not equivalent” (Scientific Reports, 2021):
Read-outs that look alike come from different tables or passages of the source.

What was measured:
WT PNP/Pi complex = target: T1, WT PNP/Pi complex (Escherichia coli, UniProt P0ABP8); experiment: Thermophoretic (MST) titrations with formycin A; design: species or system E. coli; details: two-binding-site model, 50 mM phosphate, pH 7.6, 25 °C
T1 construct: made in house
Method: (§1) Measurements were performed with Monolith NT115 (NanoTemper). Enzyme was labelled with NT647 fluorescent dye (NanoTemper) according to the protocol provided by the manufacturer. Labelled proteins show fluorescence excitation and emission maxima of approximately 650 and 670 nm, respectively. The series of titrations were performed at a constant protein concentration. Both proteins (WT and mutant), and ligands were dissolved in 50 mM Tris/HCl pH 7.6 buffer, measurements were performed at 25 °C. […] In the pre-experiments, it was carefully checked for both proteins, WT and Y160W mutant whether any sign of aggregation or inactivation occurs, and if mutant behaviour is similar to that of the WT enzyme. An example of the raw thermophoretic curves obtained with the relative heating laser power at 60% and 80% are shown in the Supplementary Information (Figure S7).
(§2) Experiments of the nucleoside analogue binding were performed in the presence of saturating concentration of phosphate, i.e. 50 mM. For both, WT PNP and Y160W mutant seven repetitions of each curve were measured, for a single power of the heating laser. The power of the heating laser at which the strongest change of the thermophoretic signal upon ligand binding occurs was selected, namely 80% for both enzyme variants. The raw MST traces, for two highest tested laser powers, 60% and 80%, are presented in the Supplementary information (Figure S7) Protein concentration in the capillary was constant and equal to 0.215 μM and 0.0751 μM for the WT protein and the Y160W mutant, respectively. Series of titrations were analysed globally using the DynaFit4 program[40] (see below).
(§3) Three models were taken into account in analysis of binding curves: model with one (first equation below), two (first two equations) and three binding sites. P+L⇔PLwithKd1PL+L⇔PLLwithKd2PLL+L⇔PLLLwithKd3
(§4) The model with one binding site is based on the assumption that all monomers are equivalent, and there is no cooperation between them. In the model with two binding sites the basic functional unit of the protein is a dimer, possible non-equivalence of binding sites or cooperativity between active sites in the dimer are taken into account (in the case of no cooperativity dissociation constants should be related statistically: Kd2 = 4Kd1), the dimers within hexamer are equivalent. The model with three binding sites is based on the crystallographic structures of binary and ternary complexes of PNP with ligands, where two of the dimers are in the “open-closed” conformation, but the third dimer is symmetrical, in the “open-open” conformation. Thus, active sites in the open conformation belonging to “open-closed” and “open-open” dimer may not be equivalent. […]
(§5) Titration series were analysed globally, always starting from the simplest, one-binding-site model. […] For all tested models the Akaike information criterion[23] was also calculated. […] Analysed models were fitted to the raw data, whereas graphs presented in this study were prepared from the normalised data and the fitted curves. […] Responses are defined as changes in a measured physical quantity related to the formation of subsequent protein–ligand complexes: intrinsic protein fluorescence intensity, fluorescence intensity of the dye, heat and ellipticity for fluorimetric, thermophoretic, calorimetric and CD titrations, respectively. […]

Y160W mutant/Pi complex = target: T2, Y160W mutant/Pi complex (Escherichia coli, UniProt P0ABP8, Y161W); experiment: Thermophoretic (MST) titrations with formycin A; design: species or system E. coli
T2 construct: made in house; host or cells: E. coli DH5α-T1
Method: as §1, §2, §3, §4, §5

Y160W PNP mutant = Y160W PNP mutant (Escherichia coli, UniProt P0ABP8, Y161W); experiment: Thermophoretic (MST) titrations with phosphate; design: made in house; host or cells: E. coli DH5α-T1; species or system E. coli; details: two-binding-site model, 25 °C
Method: as §1, with “An example of the raw thermophoretic curves obtained with the relative heating laser power at 60% and 80% are shown in the Supplementary Information (Figure S7).” left out
For experiments of the binary complex formation with phosphate, curves were measured at four different powers of the heating laser. Two to five titrations at each heating power were measured, and curves were averaged for a particular heating power. […] This is an area inaccessible in fluorescence titration due to the quenching of the protein fluorescence at such a high ionic strength of the solution. […]
Titration series were analysed globally, always starting from the simplest, one-binding-site model. […] For all tested models the Akaike information criterion[23] was also calculated. […]

Compound	Kd (WT PNP/Pi complex; Kd1 ± SD) [µM]	Kd (WT PNP/Pi complex; Kd3 ± SD) [µM]	Kd (Y160W mutant/Pi complex; Kd1 ± SD, three-binding-site model, 50 mM phosphate, pH 7.6, 25 °C) [µM]	Kd (Y160W mutant/Pi complex; Kd3 ± SD, three-binding-site model, 50 mM phosphate, pH 7.6, 25 °C) [µM]	Kd (Y160W mutant/Pi complex; read-out: Kd2 ± SD, three-binding-site model, 50 mM phosphate, pH 7.6, 25 °C) [µM]	Kd (Y160W PNP mutant; 50 mM Tris/HCl pH 7.6, read-out: Kd1 ± SD) [µM]	Kd (Y160W PNP mutant; 50 mM Tris/HCl pH 7.6, read-out: Kd3 ± SD) [µM]
Nc1ncnc2c([C@@H]3O[C@H](CO)[C@@H](O)[C@H]3O)[nH]nc12 [FA, Formycin A]	0.0107	186	0.137	1750	110		
O=P(O)(O)O [Pi, Orthophosphate]						3.2	1280
